This is an account of results in patent publication US11857565B2, “Hydrophobic Auristatin F compounds and conjugates thereof” (priority 2018, dated 2024).

Format in all cases: cell-based
The subject of one assay is A2058 Melanoma. As to the kind of experiment: In vitro cytotoxicity, free drugs on A2058. Conditions: Homo sapiens, A2058; free drug. Here is the method:
(§1) The cytotoxicity of an auristatin Ligand Drug Conjugate or free auristatin drug was measured by a cell proliferation assay employing the protocol described in Promega Corp. Technical Bulletin TB288; Mendoza et al., 2002, Cancer Res. 62:5485-5488), the methods of which is specifically incorporated by reference herein. Briefly, an aliquot of 100 μl of cell culture containing about […] (e.g., HL-60, SK-MEL-5, etc.) in medium is deposited in each well of a 96-well, opaque-walled plate. Control wells were prepared containing medium and without cells. Free Drug or conjugate is added to the experimental wells and incubated for 96 h and are then equilibrated to room temperature for approximately 30 minutes whereupon a volume of CellTiter-Glo™ reagent equal to the volume of cell culture medium present in each well is added. The contents are mixed for 2 minutes on an orbital shaker to induce cell lysis and the plate is incubated at room temperature for 10 minutes to stabilize the luminescence signal for recordation.

A short description of assay [1]: In vitro cytotoxicity, free drugs on Colo-853. As to conditions: free drug; read-out: In vitro IC50 Colo-853 Colon Cancer. Here is the method: as §1
The next assay concerns A375 Melanoma. Put plainly: In vitro cytotoxicity, free drugs on A375. As to conditions: Homo sapiens, A-375; free drug. As for the experimental part: as §1
The subject of another assay is SK-MEL-28 Melanoma. As to the kind of experiment: In vitro cytotoxicity, free drugs on SK-MEL-28. As to conditions: Homo sapiens, SK-MEL-28; free drug. As for the experimental part:
as §1

The next assay has as its system IGR-37 Melanoma. As to the kind of experiment: In vitro cytotoxicity, free drugs on IGR-37. Conditions: Homo sapiens, IGR-37; free drug. Here is the method: as §1
The next assay concerns SK-MEL-5 Melanoma. Put plainly: In vitro cytotoxicity, free drugs on SK-MEL-5. Conditions: Homo sapiens, SK-MEL-5; free drug. As for the experimental part:
as §1

Assay [2] relates to MDR+ HL60/RV acute myeloid leukemia cell line. As to the kind of experiment: In vitro cytotoxicity (CellTiter-Glo cell proliferation assay), free drugs on HL60/RV. As to conditions: read-out: In vitro IC50 HL60/RV (MDR+). As for the experimental part:
as §1
In general terms: In ATP-based viability assays light output follows the ATP content of the culture.

Assay [3] has as its system MDR− HL60 acute myeloid leukemia cell line. As to the kind of experiment: In vitro cytotoxicity (CellTiter-Glo cell proliferation assay), free drugs on HL60. Conditions: read-out: In vitro IC50 HL60 (MDR−). Here is the method: as §1

Read-outs that look alike come from different tables or passages of the source. Starred links: 1 amine or outer side, 2 acyl side, 3 side chain; linkers in the order of their positions; H or OH if unused. Non-standard residues stand in square brackets, D forms with d. Residues, ends and D or L forms follow the SMILES beside them. *: point of attachment. X4 = CC(C)[C@@H](C(=O)[*:2])N(CCCCN(C)C(=O)OC(C)(C)C)[*:1]; Dolaproine = CO[C@@H]([C@@H]1CCCN1)[C@@H](C)C(=O)O; X3 = CC(C)[C@@H](C(=O)[*:2])N(C)CCCCN(C)[*:1]; X18 = CCCCCCCCCCCCCCCN(C)[C@H](C(=O)*)C(C)C; X7 = CC(C)[C@@H](C(=O)[*:2])N(C)CCN(C)[*:1]; Dil = CC[C@H](C)[C@H](NC)[C@@H](CC(=O)O)OC; X12 = CCCCCCCCCCN(C)[C@H](C(=O)*)C(C)C; X22 = CC(C)CCN(C)[C@H](C(=O)*)C(C)C; NMe2Val = CC(C)[C@@H](C(=O)*)N(C)C; X13 = CCCCCN(C)[C@H](C(=O)*)C(C)C; X23 = CCCN(CCC)[C@H](C(=O)*)C(C)C; X19 = CCN(C)[C@H](C(=O)*)C(C)C; Boc = CC(C)(C)OC(=O)*

On to `CC[C@H](C)[C@@H]([C@@H](CC(=O)N1CCC[C@H]1[C@H](OC)[C@@H](C)C(=O)N[C@@H](Cc1ccccc1)C(=O)O)OC)N(C)C(=O)[C@@H](NC(=O)[C@@H](NCCCCN(C)C(=O)OC(C)(C)C)C(C)C)C(C)C` [Compound 17, (Boc-N-methyl)-butyl-AF] (H-[X4]V[Dil][Dolaproine]F-OH), for which the IC50 was 20.3 nM in the assay with A2058 Melanoma; 66.2 nM in assay [1]; 14.8 nM with A375 Melanoma; 77.3 nM in the assay with SK-MEL-28 Melanoma; 62.7 nM in the assay with IGR-37 Melanoma; 26.2 nM in the assay on SK-MEL-5 Melanoma.

For `CC[C@H](C)[C@@H]([C@@H](CC(=O)N1CCC[C@H]1[C@H](OC)[C@@H](C)C(=O)N[C@@H](Cc1ccccc1)C(=O)O)OC)N(C)C(=O)[C@@H](NC(=O)[C@H](C(C)C)N(C)CCN(C)C(=O)OC(C)(C)C)C(C)C` [Compound 24, Boc-(N-methyl-ethyl)-AF] (Boc-[X7]V[Dil][Dolaproine]F-OH), the IC50 in the assay on A2058 Melanoma stood at 5.2 nM; in assay [1], 19.6 nM; in the assay with A375 Melanoma, 4.9 nM; with SK-MEL-28 Melanoma it was 13.9 nM; in the assay on IGR-37 Melanoma it was 23.1 nM; in the assay on SK-MEL-5 Melanoma, 5.7 nM.

Consider `CC[C@H](C)[C@@H]([C@@H](CC(=O)N1CCC[C@H]1[C@H](OC)[C@@H](C)C(=O)N[C@@H](Cc1ccccc1)C(=O)O)OC)N(C)C(=O)[C@@H](NC(=O)[C@H](C(C)C)N(C)CC)C(C)C` [Compound 4, Ethyl-AF] (X19-V[Dil][Dolaproine]F-OH), for which the IC50 stood at 145 nM in assay [2] (Homo sapiens, HL-60, 96 h) and 23.2 nM in assay [3] (Homo sapiens, HL-60, 96 h).

Regarding `CCCN(CCC)[C@H](C(=O)N[C@H](C(=O)N(C)[C@@H]([C@@H](C)CC)[C@@H](CC(=O)N1CCC[C@H]1[C@H](OC)[C@@H](C)C(=O)N[C@@H](Cc1ccccc1)C(=O)O)OC)C(C)C)C(C)C` [Compound 23, Bis(propyl)-AF] (X23-V[Dil][Dolaproine]F-OH), the IC50 stood at 437 nM in assay [2] (Homo sapiens, HL-60, 96 h) and 6.2 nM in assay [3] (Homo sapiens, HL-60, 96 h).

Consider `CCCCCCCCCCCCCCCN(C)[C@H](C(=O)N[C@H](C(=O)N(C)[C@@H]([C@@H](C)CC)[C@@H](CC(=O)N1CCC[C@H]1[C@H](OC)[C@@H](C)C(=O)N[C@@H](Cc1ccccc1)C(=O)O)OC)C(C)C)C(C)C` [Compound 15, Pentadecyl-AF] (X18-V[Dil][Dolaproine]F-OH), for which the IC50 in assay [2] (Homo sapiens, HL-60, 96 h) is 294 nM; in assay [3] (Homo sapiens, HL-60, 96 h), 4.7 nM.

`CC[C@H](C)[C@@H]([C@@H](CC(=O)N1CCC[C@H]1[C@H](OC)[C@@H](C)C(=O)N[C@@H](Cc1ccccc1)C(=O)O)OC)N(C)C(=O)[C@@H](NC(=O)[C@H](C(C)C)N(C)C)C(C)C` [Compound 1, Auristatin F] (NMe2Val-V[Dil][Dolaproine]F-OH): the IC50 was determined as 388 nM in assay [2] (free drug, 96 h incubation) and 137 nM in assay [3] (free drug, 96 h incubation).

Take `CCCCCCCCCCN(C)[C@H](C(=O)N[C@H](C(=O)N(C)[C@@H]([C@@H](C)CC)[C@@H](CC(=O)N1CCC[C@H]1[C@H](OC)[C@@H](C)C(=O)N[C@@H](Cc1ccccc1)C(=O)O)OC)C(C)C)C(C)C` [Compound 12, Decyl-AF] (X12-V[Dil][Dolaproine]F-OH): the IC50 is 59.2 nM in assay [2] (Homo sapiens, HL-60, 96 h) and 1 nM in assay [3] (Homo sapiens, HL-60, 96 h).

For the compound `CCCCCN(C)[C@H](C(=O)N[C@H](C(=O)N(C)[C@@H]([C@@H](C)CC)[C@@H](CC(=O)N1CCC[C@H]1[C@H](OC)[C@@H](C)C(=O)N[C@@H](Cc1ccccc1)C(=O)O)OC)C(C)C)C(C)C` [Compound 7, Pentyl-AF] (X13-V[Dil][Dolaproine]F-OH), the IC50 came out at 35.7 nM in assay [2] (Homo sapiens, HL-60, 96 h) and 6.6 nM in assay [3] (Homo sapiens, HL-60, 96 h).

Consider `CC[C@H](C)[C@@H]([C@@H](CC(=O)N1CCC[C@H]1[C@H](OC)[C@@H](C)C(=O)N[C@@H](Cc1ccccc1)C(=O)O)OC)N(C)C(=O)[C@@H](NC(=O)[C@H](C(C)C)N(C)CCCCN(C)C(=O)OC(C)(C)C)C(C)C` [Compound 16, (Boc-N-methyl)-butyl-AF] (Boc-[X3]V[Dil][Dolaproine]F-OH), for which the IC50 was 0.9 nM in the assay on A2058 Melanoma; 6.2 nM in assay [1]; 0.7 nM in the assay on A375 Melanoma; 4.4 nM in the assay on SK-MEL-28 Melanoma; 2.5 nM with IGR-37 Melanoma; 0.4 nM with SK-MEL-5 Melanoma.

As to `CC[C@H](C)[C@@H]([C@@H](CC(=O)N1CCC[C@H]1[C@H](OC)[C@@H](C)C(=O)N[C@@H](Cc1ccccc1)C(=O)O)OC)N(C)C(=O)[C@@H](NC(=O)[C@H](C(C)C)N(C)CCC(C)C)C(C)C` [Compound 21, 3-Methylbutyl-AF] (X22-V[Dil][Dolaproine]F-OH), the IC50 in assay [2] (Homo sapiens, HL-60, 96 h) turned out to be 46.3 nM; in assay [3] (Homo sapiens, HL-60, 96 h), 9 nM.
